Measurements reported in paper PMC4710522, “A Novel Triazolopyridine-Based Spleen Tyrosine Kinase Inhibitor That Arrests Joint Inflammation” (PLoS ONE, 2016).

How the values were obtained:
Cyp1A2 = biological target: T1, Cyp1A2 (Homo sapiens, UniProt P05177); assay: Vivid cytochrome P450 inhibition assay; type: in vitro ADME; settings: data not shown
T1 construct: purchased Life Technologies (Vivid Assay kits)
Protocol: (§1) Syk kinase mode of inhibition studies, including parameters described in Fig 1, were conducted on the LC3000 platform by Caliper Life Sciences (Hopkinton, MA) according to standard protocols developed by the supplier. […] Non-kinase enzyme assays and GPCR, ion channel, and transporter binding assays were run by CEREP (France). Non-GLP manual patch clamp hERG assays were run by ChanTest (Cleveland, Ohio). Vivid® Assay kits (Life Technologies) were used to measure the cytochrome P450 inhibition of the compound against CYP3A, CYP2C9, CYP2C19, CYP2D6, and CYP1A2, as described.

Cyp2C9 = biological target: T2, Cyp2C9 (Homo sapiens, UniProt P11712); assay: Vivid cytochrome P450 inhibition assay; type: in vitro ADME; settings: data not shown
T2 construct: purchased Life Technologies (Vivid Assay kits)
T2 sequence (P11712 whole entry): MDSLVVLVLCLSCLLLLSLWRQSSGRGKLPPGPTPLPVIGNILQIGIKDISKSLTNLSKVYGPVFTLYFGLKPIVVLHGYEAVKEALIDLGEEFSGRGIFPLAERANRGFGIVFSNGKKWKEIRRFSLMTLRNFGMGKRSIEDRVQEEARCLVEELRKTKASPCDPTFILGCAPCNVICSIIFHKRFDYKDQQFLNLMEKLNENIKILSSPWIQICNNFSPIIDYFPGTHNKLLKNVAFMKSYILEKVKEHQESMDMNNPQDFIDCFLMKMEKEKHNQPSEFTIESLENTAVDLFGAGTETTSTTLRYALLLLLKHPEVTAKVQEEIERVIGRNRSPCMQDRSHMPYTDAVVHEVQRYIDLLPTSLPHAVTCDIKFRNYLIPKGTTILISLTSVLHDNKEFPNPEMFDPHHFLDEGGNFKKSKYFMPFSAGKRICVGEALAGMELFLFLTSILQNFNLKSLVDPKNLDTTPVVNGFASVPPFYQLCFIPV
Protocol: as §1

SPHK1_h = biological target: T3, SPHK1_h (Homo sapiens, UniProt Q9NYA1); assay: SelectScreen kinase assay; type: biochemical; settings: KM ATP, read-out: % control
T3 construct: purchased Life Technologies (Invitrogen) SelectScreen, Z'-LYTE / Adapta
Protocol: as §1
(§2) Kinase activity was measured using either the Z’-Lyte® or the Adapta® protocols as part of the SelectScreen™ profiling service offered at Life Technologies (Grand Island, NY). For the single point measurements (Part A), CC-509 was kept constant at 3 µM while ATP concentrations [ATP] used were at the KM for ATP (KM ATP) for that specific enyzme, at 10 or 100 µM ATP (10 ATP or 100 ATP, respectively), as indicated. Values expressed as percent control (% control) relative to DMSO-only wells (uninhibited, 100%).

PIK3C3_h = biological target: T4, PIK3C3_h (Homo sapiens, UniProt Q8NEB9); assay: SelectScreen kinase assay; type: biochemical; settings: KM ATP, read-out: % control
T4 construct: purchased Life Technologies (Invitrogen) SelectScreen, Z'-LYTE / Adapta
Protocol: as §1, §2

SPHK2_h = biological target: T5, SPHK2_h (Homo sapiens, UniProt Q9NRA0); assay: SelectScreen kinase assay; type: biochemical; settings: 10 µM ATP, read-out: % control
T5 construct: purchased Life Technologies (Invitrogen) SelectScreen, Z'-LYTE / Adapta
Protocol: as §1, §2

PI3_Kinase-gamma_h = biological target: T6, PI3_Kinase-gamma_h (Homo sapiens, UniProt P48736); assay: SelectScreen kinase assay; type: biochemical; settings: KM ATP, read-out: % control
T6 construct: purchased Life Technologies (Invitrogen) SelectScreen, Z'-LYTE / Adapta
Protocol: as §1, §2

PI3_Kinase-delta_h = biological target: T7, PI3_Kinase-delta_h (Homo sapiens, UniProt O00329); assay: SelectScreen kinase assay; type: biochemical; settings: KM ATP, read-out: % control
T7 construct: purchased Life Technologies (Invitrogen) SelectScreen, Z'-LYTE / Adapta
Protocol: as §1, §2

PI4K-alpha_h = biological target: T8, PI4K-alpha_h (Homo sapiens, UniProt P42356); assay: SelectScreen kinase assay; type: biochemical; settings: 10 µM ATP, read-out: % control
T8 construct: purchased Life Technologies (Invitrogen) SelectScreen, Z'-LYTE / Adapta
Protocol: as §1, §2

PI3K-C2 alpha_h = biological target: T9, PI3K-C2 alpha_h (Homo sapiens, UniProt O00443); assay: SelectScreen kinase assay; type: biochemical; settings: KM ATP, read-out: % control
T9 construct: purchased Life Technologies (Invitrogen) SelectScreen, Z'-LYTE / Adapta
T9 sequence (O00443 whole entry): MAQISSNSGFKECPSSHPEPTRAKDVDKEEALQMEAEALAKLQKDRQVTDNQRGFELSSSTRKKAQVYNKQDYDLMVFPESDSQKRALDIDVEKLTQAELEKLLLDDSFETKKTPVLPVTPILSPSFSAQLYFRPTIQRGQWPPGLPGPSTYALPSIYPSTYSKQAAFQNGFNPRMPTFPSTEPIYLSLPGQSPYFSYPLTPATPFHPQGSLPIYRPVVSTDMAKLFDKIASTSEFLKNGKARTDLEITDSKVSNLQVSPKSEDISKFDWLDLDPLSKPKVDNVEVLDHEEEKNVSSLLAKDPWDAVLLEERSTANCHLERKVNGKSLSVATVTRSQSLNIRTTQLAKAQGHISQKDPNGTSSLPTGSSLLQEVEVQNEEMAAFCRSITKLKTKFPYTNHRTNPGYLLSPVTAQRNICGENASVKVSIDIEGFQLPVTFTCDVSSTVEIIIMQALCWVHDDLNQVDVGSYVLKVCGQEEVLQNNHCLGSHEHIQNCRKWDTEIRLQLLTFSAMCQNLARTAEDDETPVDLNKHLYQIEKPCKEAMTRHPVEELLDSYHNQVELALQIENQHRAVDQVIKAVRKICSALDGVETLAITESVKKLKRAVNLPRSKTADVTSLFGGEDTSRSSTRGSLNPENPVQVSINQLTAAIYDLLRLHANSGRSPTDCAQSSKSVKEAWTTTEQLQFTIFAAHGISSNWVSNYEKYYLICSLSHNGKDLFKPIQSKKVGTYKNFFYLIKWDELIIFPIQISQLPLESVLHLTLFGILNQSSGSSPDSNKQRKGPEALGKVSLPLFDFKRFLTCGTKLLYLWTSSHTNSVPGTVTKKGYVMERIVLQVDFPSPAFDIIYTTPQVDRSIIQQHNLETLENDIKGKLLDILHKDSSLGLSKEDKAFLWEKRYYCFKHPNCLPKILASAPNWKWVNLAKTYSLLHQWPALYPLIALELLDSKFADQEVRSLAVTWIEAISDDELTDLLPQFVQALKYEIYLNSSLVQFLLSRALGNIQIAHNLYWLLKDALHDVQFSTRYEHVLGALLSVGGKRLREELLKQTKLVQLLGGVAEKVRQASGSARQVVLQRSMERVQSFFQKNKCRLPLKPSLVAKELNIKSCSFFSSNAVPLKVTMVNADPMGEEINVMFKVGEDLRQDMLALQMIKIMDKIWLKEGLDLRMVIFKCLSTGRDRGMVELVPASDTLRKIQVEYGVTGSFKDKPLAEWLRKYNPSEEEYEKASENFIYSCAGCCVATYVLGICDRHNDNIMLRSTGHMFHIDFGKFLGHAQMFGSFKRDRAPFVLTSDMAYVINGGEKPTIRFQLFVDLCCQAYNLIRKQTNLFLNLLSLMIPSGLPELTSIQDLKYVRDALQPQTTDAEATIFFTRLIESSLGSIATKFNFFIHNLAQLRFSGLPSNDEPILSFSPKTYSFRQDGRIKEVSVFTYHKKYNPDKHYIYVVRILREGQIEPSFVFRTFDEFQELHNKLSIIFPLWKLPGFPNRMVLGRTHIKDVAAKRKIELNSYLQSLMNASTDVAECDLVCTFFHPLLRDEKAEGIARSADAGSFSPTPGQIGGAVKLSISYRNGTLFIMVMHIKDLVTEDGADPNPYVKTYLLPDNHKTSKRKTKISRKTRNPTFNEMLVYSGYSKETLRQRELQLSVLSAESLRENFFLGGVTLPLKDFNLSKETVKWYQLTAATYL
Protocol: as §1, §2

PI3K-C2 beta_h = biological target: T10, PI3K-C2 beta_h (Homo sapiens, UniProt O00750); assay: SelectScreen kinase assay; type: biochemical; settings: 10 µM ATP, read-out: % control
T10 construct: purchased Life Technologies (Invitrogen) SelectScreen, Z'-LYTE / Adapta
Protocol: as §1, §2

EphA3_h = biological target: T11, EphA3_h (Homo sapiens, UniProt P29320); assay: SelectScreen kinase assay; type: biochemical; settings: KM ATP, read-out: % control
T11 construct: purchased Life Technologies (Invitrogen) SelectScreen, Z'-LYTE / Adapta
T11 sequence (P29320 21-983): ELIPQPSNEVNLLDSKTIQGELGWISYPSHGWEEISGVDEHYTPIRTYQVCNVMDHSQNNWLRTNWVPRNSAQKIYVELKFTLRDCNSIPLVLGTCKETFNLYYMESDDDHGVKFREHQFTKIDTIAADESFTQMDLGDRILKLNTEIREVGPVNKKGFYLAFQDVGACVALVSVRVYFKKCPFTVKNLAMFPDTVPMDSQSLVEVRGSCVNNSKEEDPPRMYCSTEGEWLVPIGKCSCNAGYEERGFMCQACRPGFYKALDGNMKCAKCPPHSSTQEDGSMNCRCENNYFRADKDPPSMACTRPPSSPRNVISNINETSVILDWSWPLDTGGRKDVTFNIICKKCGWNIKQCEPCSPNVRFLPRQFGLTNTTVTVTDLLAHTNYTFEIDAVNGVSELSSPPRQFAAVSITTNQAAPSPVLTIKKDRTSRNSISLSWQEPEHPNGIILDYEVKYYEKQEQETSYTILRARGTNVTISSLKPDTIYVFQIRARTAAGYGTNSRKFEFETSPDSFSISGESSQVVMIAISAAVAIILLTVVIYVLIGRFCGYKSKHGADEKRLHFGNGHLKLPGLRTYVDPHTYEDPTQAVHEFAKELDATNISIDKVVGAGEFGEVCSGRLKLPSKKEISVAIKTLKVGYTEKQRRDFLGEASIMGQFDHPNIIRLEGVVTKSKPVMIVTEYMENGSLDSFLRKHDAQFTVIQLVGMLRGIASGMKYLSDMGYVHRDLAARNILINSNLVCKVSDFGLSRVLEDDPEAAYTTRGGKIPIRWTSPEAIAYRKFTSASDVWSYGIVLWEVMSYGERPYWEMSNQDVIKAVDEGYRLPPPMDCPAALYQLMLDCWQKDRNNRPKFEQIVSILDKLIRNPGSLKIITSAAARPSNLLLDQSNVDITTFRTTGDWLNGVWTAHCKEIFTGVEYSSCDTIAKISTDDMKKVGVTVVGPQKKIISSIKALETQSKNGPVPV
Protocol: as §1, §2

PI3_Kinase-alpha_h = biological target: T12, PI3_Kinase-alpha_h (Homo sapiens, UniProt P42336); assay: SelectScreen kinase assay; type: biochemical; settings: KM ATP, read-out: % control
T12 construct: purchased Life Technologies (Invitrogen) SelectScreen, Z'-LYTE / Adapta
Protocol: as §1, §2

PI4K-beta_h = biological target: T13, PI4K-beta_h (Homo sapiens, UniProt Q9UBF8); assay: SelectScreen kinase assay; type: biochemical; settings: KM ATP, read-out: % control
T13 construct: purchased Life Technologies (Invitrogen) SelectScreen, Z'-LYTE / Adapta
Protocol: as §1, §2

JAK2 = biological target: T14, JAK2 (Homo sapiens, UniProt O60674); assay: JAK2 HTRF assay; type: biochemical
T14 construct: purchased Millipore 14-511
T14 sequence (O60674 whole entry): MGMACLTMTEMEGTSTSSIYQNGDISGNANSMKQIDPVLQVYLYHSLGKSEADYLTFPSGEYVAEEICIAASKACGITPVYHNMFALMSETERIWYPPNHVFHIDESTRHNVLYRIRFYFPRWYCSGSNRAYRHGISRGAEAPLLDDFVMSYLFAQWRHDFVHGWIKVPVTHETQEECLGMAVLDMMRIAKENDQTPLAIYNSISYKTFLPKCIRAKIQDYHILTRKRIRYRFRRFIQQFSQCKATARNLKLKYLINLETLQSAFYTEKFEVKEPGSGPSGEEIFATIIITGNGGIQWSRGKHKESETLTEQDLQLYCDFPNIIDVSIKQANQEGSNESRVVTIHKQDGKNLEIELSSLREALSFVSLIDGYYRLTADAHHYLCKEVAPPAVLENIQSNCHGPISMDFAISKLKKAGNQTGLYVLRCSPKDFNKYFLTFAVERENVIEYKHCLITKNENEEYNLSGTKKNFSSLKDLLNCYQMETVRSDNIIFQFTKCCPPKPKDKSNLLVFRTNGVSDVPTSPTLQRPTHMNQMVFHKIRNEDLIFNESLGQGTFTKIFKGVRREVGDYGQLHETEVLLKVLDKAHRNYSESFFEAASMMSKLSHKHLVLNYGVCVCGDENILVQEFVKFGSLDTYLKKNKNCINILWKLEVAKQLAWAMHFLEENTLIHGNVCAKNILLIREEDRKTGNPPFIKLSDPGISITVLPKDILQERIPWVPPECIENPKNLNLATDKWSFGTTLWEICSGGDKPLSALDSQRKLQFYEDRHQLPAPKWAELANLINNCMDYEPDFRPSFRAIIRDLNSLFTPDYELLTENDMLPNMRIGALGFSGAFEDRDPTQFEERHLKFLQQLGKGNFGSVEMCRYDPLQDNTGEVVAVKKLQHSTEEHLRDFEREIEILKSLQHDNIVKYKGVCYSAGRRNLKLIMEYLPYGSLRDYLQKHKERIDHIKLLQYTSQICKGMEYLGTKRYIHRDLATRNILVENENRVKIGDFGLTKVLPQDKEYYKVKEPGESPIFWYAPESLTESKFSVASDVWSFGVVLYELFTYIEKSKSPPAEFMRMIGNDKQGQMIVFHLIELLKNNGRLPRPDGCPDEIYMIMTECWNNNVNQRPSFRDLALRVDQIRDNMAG
Protocol: CC-509 was prepared at a concentration of 1.5 mM in DMSO followed by 3-fold dilutions in Greiner […] polypropylene plates. A 1:4 dilution of compounds by 8 μL/well transfer from the polypropylene plates to 24 μL/well Assay Buffer (50 mM HEPES pH 7.6, 1 mM DTT, 10 mM MgCl2, 0.01% Triton X100, 0.01% BSA and 0.1 mM EDTA) in Costar 3573 384 well black plates was then performed. Kinase (13 μL/well of 4.6 ng/mL JAK2, Millipore 14–511) or Assay Buffer only (background controls) were added to Costar 3573 384-well black plates and compound (2 μL/well) was added from the 1:4 dilution plate. […] Time resolved fluorescence was read in assay plates on a PerkinElmer EnVision. […]
For the TEL-Syk assay, the intensity values for the 700 and 800 channel were exported as text files in ActivityBase (IDBS, Guildford, UK) to derive the ratios that reflect kinase activity. […] For the JAK2 HEL and Ramos NFAT β-lactamase assays, the fluorescence values obtained at 460 nm and 530 nm were exported into ActivityBase to calculate response ratios. […] Evans blue dye extravasation was expressed as mean ± SEM and % inhibition for the test article groups was normalized to the cromolyn positive control. […] The mean data from each group was plotted and either the AUC(day 11–18) or % inhibition on day 18 was calculated. Data is expressed as mean ± SEM of each group with n = 6–12. […]

[1] = test system: rat collagen-induced arthritis model; settings: 10 or 30 mg/kg b.i.d.; cited from earlier work

T1 sequence (P05177 whole entry): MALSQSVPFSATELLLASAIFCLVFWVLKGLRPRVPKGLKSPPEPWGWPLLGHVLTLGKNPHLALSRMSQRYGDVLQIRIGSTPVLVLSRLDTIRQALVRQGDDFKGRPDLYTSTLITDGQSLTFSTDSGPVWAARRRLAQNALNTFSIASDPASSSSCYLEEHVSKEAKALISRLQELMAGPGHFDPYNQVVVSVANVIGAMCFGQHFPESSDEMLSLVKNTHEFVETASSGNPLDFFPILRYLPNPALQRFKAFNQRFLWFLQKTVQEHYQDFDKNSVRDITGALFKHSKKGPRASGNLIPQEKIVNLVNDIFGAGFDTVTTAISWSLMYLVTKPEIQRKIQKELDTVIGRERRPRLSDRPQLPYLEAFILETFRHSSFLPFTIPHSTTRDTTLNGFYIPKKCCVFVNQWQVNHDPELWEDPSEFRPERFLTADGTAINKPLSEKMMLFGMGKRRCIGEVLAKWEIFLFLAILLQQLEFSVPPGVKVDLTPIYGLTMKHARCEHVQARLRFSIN

c1cc(CC2CCOCC2)n2nc(Nc3ccc4c(NC5CCOCC5)n[nH]c4c3)nc2c1 [CC-509, [3-(2H-3,4,5,6-tetrahydropyran-4-ylamino)(1H-indazol-6-yl)][5-(2H-3,4,5,6-tetrahydropyran-4-ylmethyl)(2H-1,2,4-triazolo[1,5-a]pyridin-2-yl)]amine]
inhibition of Cyp450 activity (Cyp1A2): did not inhibit
inhibition of Cyp450 activity (Cyp2C9): did not inhibit
remaining activity at 3 µM (SPHK1_h): 96%
remaining activity at 3 µM (PIK3C3_h): 79%
remaining activity at 3 µM (SPHK2_h): 105%
remaining activity at 3 µM (PI3_Kinase-gamma_h): 61%
remaining activity at 3 µM (PI3_Kinase-delta_h): 58%
remaining activity at 3 µM (PI4K-alpha_h): 120%
remaining activity at 3 µM (PI3K-C2 alpha_h): 95%
remaining activity at 3 µM (PI3K-C2 beta_h): 98%
remaining activity at 3 µM (EphA3_h): 98%
remaining activity at 3 µM (PI3_Kinase-alpha_h): 81%
remaining activity at 3 µM (PI4K-beta_h): 77%
fold less potent than R406, Jak2 enzyme (JAK2; data not shown): 22 fold
IC50 (JAK2; in-house, mean ± SD): 19 ± 2 nM

COc1cc(Nc2ncc(F)c(Nc3ccc4c(n3)NC(=O)C(C)(C)O4)n2)cc(OC)c1OC [R406, reference compound]
clinical paw score in rat CIA [1]: significantly reduced
